Measured values published in ChEMBL document CHEMBL5634100, “Novel spiro[pyrrolidine-2,3'-quinoline]-2'-one derivatives containing piperazine fragment as potential chitin synthase inhibitors and antifungal agents: Design, synthesis and biological evaluation” (Eur J Med Chem, 2023).
Converted amounts (≈) assume the structure as drawn. Numbered stars: 1 amine (or outer) side, 2 acyl side, 3 side chain; on linkers, the order of the positions; unused ones are H or OH. Bridge positions count the residues as written; N and C are the ends. Square brackets hold non-standard residues; d marks the D form. Peptide text beside a SMILES is read from it. * marks the point of attachment. hTyr(3S-OH,4S-OH,3'-OSO3H) = N[C@H](C(=O)O)[C@H](O)[C@@H](O)c1ccc(O)c(OS(=O)(=O)O)c1; Orn(4R-OH,5R-OH) = O=C([C@H](C[C@@H](O)[C@@H](O)N[*:3])N[*:1])[*:2]; Pro(3S-OH,4S-Me) = C[C@H]1CN[C@H](C(=O)O)[C@H]1O; X1 = CCCCCOc1ccc(-c2cc(-c3ccc(C(=O)*)cc3)no2)cc1; Gln(3R-OH) = NC(=O)C[C@@H](O)[C@H](N)C(=O)O; Hyp = O=C(O)[C@@H]1C[C@@H](O)CN1

Tests used:
[1] = system: Candida albicans; test: Synergistic antimicrobial activity against Candida albicans ATCC 76615 assessed as fractional inhibitory concentration index incubated for 24 hrs in presence of polyoxin B by checkerboard method; type: functional
[2] = system: Aspergillus flavus; test: Antimicrobial activity against Aspergillus flavus ATCC 16870 incubated for 24 hrs in presence of polyoxin B by checkerboard method; type: functional
[3] = system: Aspergillus fumigatus; test: Antimicrobial activity against Aspergillus fumigatus GIMCC 3.19 incubated for 24 hrs by two fold serial dilution method; type: functional
[4] = system: Aspergillus fumigatus; test: Antimicrobial activity against Aspergillus fumigatus GIMCC 3.19 incubated for 24 hrs in presence of fluconazole by checkerboard method; type: functional
[5] = system: Aspergillus flavus; test: Synergistic antimicrobial activity against Aspergillus flavus ATCC 16870 assessed as fractional inhibitory concentration index incubated for 24 hrs in presence of fluconazole by checkerboard method; type: functional
[6] = system: Aspergillus fumigatus; test: Synergistic antimicrobial activity against Aspergillus fumigatus GIMCC 3.19 assessed as fractional inhibitory concentration index incubated for 24 hrs in presence of fluconazole by checkerboard method; type: functional
[7] = system: Aspergillus flavus; test: Antimicrobial activity against Aspergillus flavus ATCC 16870 assessed as inhibition of cell wall synthesis in presence of sorbitol; type: functional
[8] = system: Candida albicans; test: Antimicrobial activity against Candida albicans ATCC 76615 incubated for 24 hrs in presence of polyoxin B by checkerboard method; type: functional
[9] = system: Candida tropicalis; test: Inhibition of Candida tropicalis ATCC 750 chitin synthase using UDP-GlcNAc as substrate at 300 ug/ml by TMB based microplate analyzer relative to control; conditions: dose 300.0 µg/ml
[10] = system: Candida albicans; test: Synergistic antimicrobial activity against Candida albicans ATCC 76615 assessed as fractional inhibitory concentration index incubated for 24 hrs in presence of fluconazole by checkerboard method; type: functional
[11] = system: Aspergillus fumigatus; test: Antimicrobial activity against Aspergillus fumigatus GIMCC 3.19 assessed as inhibition of cell wall synthesis in presence of sorbitol; type: functional
[12] = system: Cryptococcus neoformans; test: Antimicrobial activity against Cryptococcus neoformans ATCC 32719 incubated for 24 hrs in presence of polyoxin B by checkerboard method; type: functional
[13] = system: Cryptococcus neoformans; test: Additive antimicrobial activity against Cryptococcus neoformans ATCC 32719 assessed as fractional inhibitory concentration index incubated for 24 hrs in presence of fluconazole by checkerboard method; type: functional
[14] = Inhibition of Candida tropicalis ATCC 750 chitin synthase using UDP-GlcNAc as substrate by TMB based microplate analyzer
[15] = system: Aspergillus fumigatus; test: Synergistic antimicrobial activity against Aspergillus fumigatus GIMCC 3.19 assessed as fractional inhibitory concentration index incubated for 24 hrs in presence of polyoxin B by checkerboard method; type: functional
[16] = system: Aspergillus flavus; test: Antimicrobial activity against Aspergillus flavus ATCC 16870 incubated for 24 hrs by two fold serial dilution method; type: functional
[17] = system: Candida albicans; test: Antimicrobial activity against Candida albicans ATCC 76615 assessed as inhibition of cell wall synthesis in presence of sorbitol; type: functional
[18] = system: Cryptococcus neoformans; test: Antimicrobial activity against Fluconazole-resistant Cryptococcus neoformans ATCC 32719R incubated for 24 hrs by two fold serial dilution method; type: functional
[19] = system: Aspergillus flavus; test: Antimicrobial activity against Aspergillus flavus ATCC 16870 incubated for 24 hrs in presence of fluconazole by checkerboard method; type: functional
[20] = system: Aspergillus flavus; test: Synergistic antimicrobial activity against Aspergillus flavus ATCC 16870 assessed as fractional inhibitory concentration index incubated for 24 hrs in presence of polyoxin B by checkerboard method; type: functional
[21] = system: Candida albicans; test: Antimicrobial activity against Candida albicans ATCC 76615 incubated for 24 hrs by two fold serial dilution method; type: functional
[22] = system: Aspergillus fumigatus; test: Antimicrobial activity against Fluconazole-resistant Aspergillus fumigatus GIMCC 3.19R incubated for 24 hrs by two fold serial dilution method; type: functional
[23] = system: Aspergillus flavus; test: Antimicrobial activity against Fluconazole-resistant Aspergillus flavus ATCC 16870R incubated for 24 hrs by two fold serial dilution method; type: functional
[24] = system: Candida albicans; test: Antimicrobial activity against Candida albicans ATCC 76615 incubated for 24 hrs in presence of fluconazole by checkerboard method; type: functional
[25] = system: Candida albicans; test: Antimicrobial activity against micafungin-resistant Candida albicans ATCC 76615R incubated for 24 hrs by two fold serial dilution method; type: functional
[26] = system: Candida albicans; test: Antimicrobial activity against fluconazole-resistant Candida albicans ATCC 76615R incubated for 24 hrs by two fold serial dilution method; type: functional
[27] = system: Aspergillus fumigatus; test: Antimicrobial activity against Aspergillus fumigatus GIMCC 3.19 incubated for 24 hrs in presence of polyoxin B by checkerboard method; type: functional
[28] = system: Cryptococcus neoformans; test: Antimicrobial activity against Cryptococcus neoformans ATCC 32719 incubated for 24 hrs by two fold serial dilution method; type: functional
[29] = system: Cryptococcus neoformans; test: Antimicrobial activity against Cryptococcus neoformans ATCC 32719 incubated for 24 hrs in presence of fluconazole by checkerboard method; type: functional
[30] = system: Cryptococcus neoformans; test: Antimicrobial activity against Cryptococcus neoformans ATCC 32719 assessed as inhibition of cell wall synthesis in presence of sorbitol; type: functional
[31] = system: Cryptococcus neoformans; test: Additive antimicrobial activity against Cryptococcus neoformans ATCC 32719 assessed as fractional inhibitory concentration index incubated for 24 hrs in presence of polyoxin B by checkerboard method; type: functional
[32] = system: Cryptococcus neoformans; test: Synergistic antimicrobial activity against Cryptococcus neoformans ATCC 32719 assessed as fractional inhibitory concentration index incubated for 24 hrs in presence of fluconazole by checkerboard method; type: functional
[33] = system: Candida albicans; test: Additive antimicrobial activity against Candida albicans ATCC 76615 assessed as fractional inhibitory concentration index incubated for 24 hrs in presence of polyoxin B by checkerboard method; type: functional
[34] = system: Candida albicans; test: Additive antimicrobial activity against Candida albicans ATCC 76615 assessed as fractional inhibitory concentration index incubated for 24 hrs in presence of fluconazole by checkerboard method; type: functional
[35] = system: Cryptococcus neoformans; test: Synergistic antimicrobial activity against Cryptococcus neoformans ATCC 32719 assessed as fractional inhibitory concentration index incubated for 24 hrs in presence of polyoxin B by checkerboard method; type: functional

## O=C(c1c(F)cccc1F)N1CCN(CC(=O)N2CCCC23Cc2ccccc2NC3=O)CC1 (centres undefined)
[1]
  fractional inhibitory concentration index (FICI): 0.625
[2]
  MIC: 1 µg/mL
[3]
  MIC: 0.5 µg/mL (≈ 1.07 µM)
[4]
  MIC: 2 µg/mL
[5]
  fractional inhibitory concentration index (FICI): 0.75
[6]
  fractional inhibitory concentration index (FICI): 0.625
[7]
  MIC: 256 µg/mL
[8]
  MIC: 1 µg/mL
[9]
  inhibition: 83.4%
[10]
  fractional inhibitory concentration index (FICI): 0.75
[11]
  MIC: 64 µg/mL
[12]
  MIC: 2 µg/mL
[13]
  fractional inhibitory concentration index (FICI): 1.125
[14]
  IC50: 110 µM
[15]
  fractional inhibitory concentration index (FICI): 0.75
[16]
  MIC: 2 µg/mL (≈ 4.27 µM)
[17]
  MIC: 128 µg/mL
[18]
  MIC: 128 µg/mL (≈ 273 µM)
[19]
  MIC: 4 µg/mL
[20]
  fractional inhibitory concentration index (FICI): 0.375
[21]
  MIC: 1 µg/mL (≈ 2.13 µM)
[22]
  MIC: 64 µg/mL (≈ 137 µM)
[23]
  MIC: 64 µg/mL (≈ 137 µM)
[24]
  MIC: 1 µg/mL
[25]
  MIC: 64 µg/mL (≈ 137 µM)
[26]
  MIC: 64 µg/mL (≈ 137 µM)
[27]
  MIC: 2 µg/mL
[28]
  MIC: 8 µg/mL (≈ 17.1 µM)
[29]
  MIC: 1 µg/mL
[30]
  MIC: 256 µg/mL
[31]
  fractional inhibitory concentration index (FICI): 1.125

## Cc1cccc(C(=O)N2CCN(CC(=O)N3CCCC34Cc3ccccc3NC4=O)CC2)c1 (centres undefined)
[3]
  MIC: 32 µg/mL (≈ 71.7 µM)
[9]
  inhibition: 49.4%
[16]
  MIC: 32 µg/mL (≈ 71.7 µM)
[21]
  MIC: 16 µg/mL (≈ 35.8 µM)
[28]
  MIC: 64 µg/mL (≈ 143 µM)

## CCCCCOc1ccc(-c2cc(-c3ccc(C(=O)N[C@H]4C[C@@H](O)[C@@H](O)NC(=O)[C@@H]5[C@@H](O)[C@@H](C)CN5C(=O)[C@H]([C@H](O)CC(N)=O)NC(=O)[C@H]([C@H](O)[C@@H](O)c5ccc(O)c(OS(=O)(=O)O)c5)NC(=O)[C@@H]5C[C@@H](O)CN5C(=O)[C@H]([C@@H](C)O)NC4=O)cc3)no2)cc1 [MICAFUNGIN] (X1-[Orn(4R-OH,5R-OH)]T[Hyp][hTyr(3S-OH,4S-OH,3'-OSO3H)][Gln(3R-OH)][Pro(3S-OH,4S-Me)]; lactam 1-C)
[25]
  MIC: > 256 µg/mL

## O=C(c1cccc(Br)c1)N1CCN(CC(=O)N2CCCC23Cc2ccccc2NC3=O)CC1 (centres undefined)
[3]
  MIC: 16 µg/mL (≈ 31.3 µM)
[9]
  inhibition: 58.8%
[14]
  IC50: 320 µM
[16]
  MIC: 16 µg/mL (≈ 31.3 µM)
[21]
  MIC: 8 µg/mL (≈ 15.6 µM)
[28]
  MIC: 32 µg/mL (≈ 62.6 µM)

## O=C(c1ccc([N+](=O)[O-])cc1)N1CCN(CC(=O)N2CCCC23Cc2ccccc2NC3=O)CC1 (centres undefined)
[32]
  fractional inhibitory concentration index (FICI): 0.75
[2]
  MIC: 1 µg/mL
[3]
  MIC: 1 µg/mL (≈ 2.09 µM)
[4]
  MIC: 2 µg/mL
[5]
  fractional inhibitory concentration index (FICI): 0.75
[6]
  fractional inhibitory concentration index (FICI): 1
[7]
  MIC: 32 µg/mL
[8]
  MIC: 1 µg/mL
[9]
  inhibition: 80.2%
[11]
  MIC: 64 µg/mL
[12]
  MIC: 4 µg/mL
[14]
  IC50: 110 µM
[15]
  fractional inhibitory concentration index (FICI): 0.75
[16]
  MIC: 2 µg/mL (≈ 4.19 µM)
[17]
  MIC: 64 µg/mL
[18]
  MIC: 64 µg/mL (≈ 134 µM)
[33]
  fractional inhibitory concentration index (FICI): 1.125
[19]
  MIC: 2 µg/mL
[20]
  fractional inhibitory concentration index (FICI): 0.375
[34]
  fractional inhibitory concentration index (FICI): 1.125
[21]
  MIC: 2 µg/mL (≈ 4.19 µM)
[22]
  MIC: 64 µg/mL (≈ 134 µM)
[23]
  MIC: 128 µg/mL (≈ 268 µM)
[24]
  MIC: 0.5 µg/mL
[25]
  MIC: 128 µg/mL (≈ 268 µM)
[26]
  MIC: 32 µg/mL (≈ 67 µM)
[27]
  MIC: 4 µg/mL
[28]
  MIC: 2 µg/mL (≈ 4.19 µM)
[29]
  MIC: 2 µg/mL
[35]
  fractional inhibitory concentration index (FICI): 0.5
[30]
  MIC: 64 µg/mL

## Cc1ccc(C(=O)N2CCN(CC(=O)N3CCCC34Cc3ccccc3NC4=O)CC2)cc1 (centres undefined)
[3]
  MIC: 32 µg/mL (≈ 71.7 µM)
[9]
  inhibition: 52.3%
[16]
  MIC: 16 µg/mL (≈ 35.8 µM)
[21]
  MIC: 16 µg/mL (≈ 35.8 µM)
[28]
  MIC: 64 µg/mL (≈ 143 µM)

## O=C(c1ccccc1)N1CCN(CC(=O)N2CCCC23Cc2ccccc2NC3=O)CC1 (centres undefined)
[3]
  MIC: 32 µg/mL (≈ 74 µM)
[9]
  inhibition: 47%
[16]
  MIC: 32 µg/mL (≈ 74 µM)
[21]
  MIC: 16 µg/mL (≈ 37 µM)
[28]
  MIC: 64 µg/mL (≈ 148 µM)

## O=C(c1ccccc1Cl)N1CCN(CC(=O)N2CCCC23Cc2ccccc2NC3=O)CC1 (centres undefined)
[3]
  MIC: 16 µg/mL (≈ 34.3 µM)
[9]
  inhibition: 61.4%
[16]
  MIC: 16 µg/mL (≈ 34.3 µM)
[21]
  MIC: 16 µg/mL (≈ 34.3 µM)
[28]
  MIC: 32 µg/mL (≈ 68.5 µM)
